From patent US6706664B1, “Benzoxazole compounds, process for the preparation thereof and herbicides” (UBE Industries, Ltd., priority 1999, dated 2004)

How the values were obtained:
Set-up in all cases: key: 0: normal development; 1: Less damaged; 2: Slightly damaged; 3: Moderately damaged; 4: Severely damaged; 5: All killed
[1] = tested on: blackgrass; assay: Foliar spread test for upland field; type: in vivo, Alopecurus aegualis; details: foliar spray 500 ppm, 3 weeks, rank vs non-treated
Method in brief: (§1)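 Post-emergence foliar spray, 500 ppm (wettable powder in water + 0.5% surfactant), on ~2-week-old plants grown in volcanic ash soil; glasshouse, avg 25° C, 3 wk; visual damage score 0–5.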

[2] = tested on: barnyardgrass; assay: Soil treatment test for upland field; type: in vivo, Echinochloa crusgalli; details: 500 g/ha, glass house 25° C., 3 weeks
Method in brief: (§2)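 Seeds planted in Wagner pots of Ube soil (alluvial) and covered. Wettable powder diluted in 0.05% surfactant water, sprayed uniformly onto soil at 500 g/ha effective rate. Grown 3 weeks, glasshouse, mean 25° C, then damage rated visually 0–5.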

[3] = tested on: livid amaranth; assay: Foliar spread test for upland field; type: in vivo, Amaranthus lividus; details: foliar spray 500 ppm, 3 weeks, rank vs non-treated
Method in brief: as §1

[4] = tested on: blackgrass; assay: Soil treatment test for upland field; type: in vivo, Alopecurus aegualis; details: 500 g/ha, glass house 25° C., 3 weeks
Method in brief: as §2

[5] = tested on: green foxtail; assay: Foliar spread test for upland field; type: in vivo, Setaria viridis; details: foliar spray 500 ppm, 3 weeks, rank vs non-treated
Method in brief: as §1

[6] = tested on: livid amaranth; assay: Soil treatment test for upland field; type: in vivo, Amaranthus lividus; details: 500 g/ha, glass house 25° C., 3 weeks
Method in brief: as §2

[7] = tested on: common lambsquartes; assay: Foliar spread test for upland field; type: in vivo, Chenopodium album; details: foliar spray 500 ppm, 3 weeks, rank vs non-treated
Method in brief: as §1

[8] = tested on: barnyardgrass; assay: Herbicidal test for paddy field; type: in vivo, Echinochloa crusgalli; details: paddy field pot, 500 g/ha dropwise at 1.5 leaf stage of barnyardgrass, 3 weeks, rank vs non-treated
Method in brief: (§3)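 Ube alluvial soil in pots flooded to 3 cm water depth, sown with seeds or tubers. Wettable powder diluted in water with 0.05% surfactant was dripped onto the water at 500 g/ha when barnyardgrass reached the 1.5-leaf stage. After 3 weeks in a glasshouse at an average of 25° C, damage was scored 0 (normal) to 5 (all killed) against untreated pots.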

[9] = tested on: common lambsquartes; assay: Soil treatment test for upland field; type: in vivo, Chenopodium album; details: 500 g/ha, glass house 25° C., 3 weeks
Method in brief: as §2

[10] = tested on: Large crabgrass; assay: Soil treatment test for upland field; type: in vivo, Digitaria adscendens; details: 500 g/ha, glass house 25° C., 3 weeks
Method in brief: as §2

[11] = tested on: annual bluegrass; assay: Soil treatment test for upland field; type: in vivo, Poa annua; details: 500 g/ha, glass house 25° C., 3 weeks
Method in brief: as §2

[12] = tested on: green foxtail; assay: Soil treatment test for upland field; type: in vivo, Setaria viridis; details: 500 g/ha, glass house 25° C., 3 weeks
Method in brief: as §2

[13] = tested on: velvetleaf; assay: Foliar spread test for upland field; type: in vivo, Abutilon theophrasti; details: foliar spray 500 ppm, 3 weeks, rank vs non-treated
Method in brief: as §1

[14] = tested on: corn; assay: Foliar spread test for upland field; type: in vivo; details: foliar spray 500 ppm, 3 weeks, rank vs non-treated
Method in brief: as §1

[15] = tested on: solgum; assay: Foliar spread test for upland field; type: in vivo; details: foliar spray 500 ppm, 3 weeks, rank vs non-treated
Method in brief: as §1

[16] = tested on: monochoria; assay: Herbicidal test for paddy field; type: in vivo, Monochoria vaginalis; details: paddy field pot, 500 g/ha dropwise at 1.5 leaf stage of barnyardgrass, 3 weeks, rank vs non-treated
Method in brief: as §3

[17] = tested on: velvetleaf; assay: Soil treatment test for upland field; type: in vivo, Abutilon theophrasti; details: 500 g/ha, glass house 25° C., 3 weeks
Method in brief: as §2

[18] = tested on: annual bluegrass; assay: Foliar spread test for upland field; type: in vivo, Poa annua; details: foliar spray 500 ppm, 3 weeks, rank vs non-treated
Method in brief: as §1

Structure (SMILES)	Effects Blackgrass [1]	Effects Barnyardgrass [2]	Effects Livid amaranth [3]	Effects Blackgrass [4]	Effects Green foxtail [5]	Effects Livid amaranth [6]	Effects Common lambsquarters [7]	Effect Barnyardgrass [8]	Effects Common lambsquarters [9]	Effects Large crabgrass [10]	Effects Annual bluegrass [11]	Effects Green foxtail [12]	Effects Velvetleaf [13]	Effects Corn [14]	Effects Solgum [15]	Effect Monochoria [16]	Effects Velvetleaf [17]	Effects Annual bluegrass [18]
CCCC(Oc1cccc(C(F)(F)F)c1)c1nc2cc(F)c(C(F)(F)F)cc2o1 (stereo not shown) [Compound 474]	2	5	5	5	5	5	5	2	5	5	5	5	2	2	2	5	5	3
CCC(Oc1cccc(C#N)c1)c1nc2cc(F)c(Cl)cc2o1 (stereo not shown) [Compound 498]		3	4	4	4	5		3	5	5	5	5	2	1	1	2	3	2
CCC(Oc1cccc(C(F)(F)F)c1)c1nc2cc(Br)ccc2o1 (stereo not shown) [Compound 166]	1	4	4	3	3	5	4	3	2	5	5	5	2	3	1	5		
CCC(Oc1ccc(Cl)c(C(F)(F)F)c1)c1nc2cc(F)ccc2o1 (stereo not shown) [Compound 441]	2	5	3	3	3	5	3	5	4	5	5	5		2	2	5	1	1
CCCC(Oc1cccc(C(F)(F)F)c1)c1nc2cc(F)c(Cl)cc2o1 (stereo not shown) [Compound 497]			5		4	5	2	4	5	5	4	5	3	2	1	4	3	2
CCCC(Oc1ccc(F)c(C(F)(F)F)c1)c1nc2cc(F)c(Cl)cc2o1 (stereo not shown) [Compound 494]		4	5	5	3	5	4	5	4	5	5	5	2	2	1	5	3	
CCC(Oc1cccc(OC(F)(F)F)c1)c1nc2cc(C#N)c(C#N)cc2o1 (stereo not shown) [Compound 527]	2	4	5	4	5	5	5	4	5	5	5	5	3		1	4	5	5
CC(Oc1ccc(F)c(C(F)(F)F)c1)c1nc2cc(Cl)ccc2o1 (stereo not shown) [Compound 137]		3	4	3	3	5		3	2	5	5	5	1	2	1	3		
CCC(Oc1cccc(C(F)(F)F)c1)c1nc2cc(F)ccc2o1 (stereo not shown) [Compound 120]	2	4	5	3	3	3	4	4	4	5	5	5		3	2	5	3	1
CCC(Oc1ccc(F)c(C(F)(F)F)c1)c1nc2cc(F)ccc2o1 (stereo not shown) [Compound 119, 1-(5-fluorobenzoxazol-2-yl)-1-(4-fluoro-3-(trifluoromethyl)phenoxy)propane]		5	4	3	1	5	4	3	1	5	5	5	2	2	1	4		
CCC(Oc1cccc(C(F)(F)F)c1)c1nc2cc(C#N)c(Cl)cc2o1 (stereo not shown) [Compound 529]	4	5	5	5	5	5	5	5	5	5	5	5	3		3	5	5	4
